# Patent US8703796B2, “3H-imidazo [4, 5-B] pyridine-6-carboxamides as anti-inflammatory agents” (Boehringer Ingelheim International GmbH, priority 2008, dated 2014)
# Target: T1, recombinant human mPGES-1 (Homo sapiens, UniProt O14684)
# T1 construct: made in house; host or cells: Rosetta E. coli (microsomal/membrane fraction)
# T1 sequence (O14684 1-152): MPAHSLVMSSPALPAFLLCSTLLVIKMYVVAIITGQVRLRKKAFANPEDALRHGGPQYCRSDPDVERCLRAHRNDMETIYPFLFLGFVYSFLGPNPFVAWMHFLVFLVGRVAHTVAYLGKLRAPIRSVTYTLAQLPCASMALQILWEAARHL
# Assay: mPGES-1 inhibition, HTRF detection of PGE2
# Format: biochemical
# In short: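 E. coli microsomal enzyme, 0.1 M KPi pH 7.4 + 2.5 mM GSH; cpd (DMSO) 25 min RT; PGH2 1 min; acidic FeCl2 stop. Dilute 750-fold, HTRF (d2/Eu-cryptate anti-PGE2, overnight 4 °C), 665/620 ratio vs PGE2 standard curve.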
row,Compound,inhibition at 10 µM [%]
1,"COCCOc1nc2[nH]c(Nc3c(Cl)cncc3Cl)nc2cc1C(=O)N[C@H]1CC[C@H](C(F)(F)F)CC1 [Example 866, 2-(3,5-Dichloro-pyridin-4-ylamino)-5-(2-methoxy-ethoxy)-N-(trans-4-trifluoromethyl-cyclohexyl)-3H-imidazo[4,5-b]pyridine-6-carboxamide]",100
2,"COCCOc1nc2[nH]c(Nc3c(Cl)cc(F)cc3Cl)nc2cc1C(=O)N[C@H]1CC[C@H](C(F)(F)F)CC1 [Example 867, 2-(2,6-Dichloro-4-fluoro-phenylamino)-5-(2-methoxy-ethoxy)-N-(trans-4-trifluoromethyl-cyclohexyl)-3H-imidazo[4,5-b]pyridine-6-carboxamide]",100
3,"COCCOc1nc2c(cc1C(=O)N[C@H]1CC[C@H](C(F)(F)F)CC1)nc(Nc1c(Cl)cncc1Cl)n2C [Example 868, 2-(3,5-Dichloro-pyridin-4-ylamino)-5-(2-methoxy-ethoxy)-N-(trans-4-trifluoromethyl-cyclohexyl)-3-methyl-3H-imidazo[4,5-b]pyridine-6-carboxamide]",100
4,"COCCOc1nc2c(cc1C(=O)N[C@H]1CC[C@H](C(F)(F)F)CC1)nc(Nc1c(Cl)cc(F)cc1Cl)n2C [Example 869, 2-(2,6-Dichloro-4-fluoro-phenylamino)-5-(2-methoxy-ethoxy)-N-(trans-4-trifluoromethyl-cyclohexyl)-3-methyl-3H-imidazo[4,5-b]pyridine-6-carboxamide]",100
5,"Cn1c(Nc2c(Cl)cc(F)cc2Cl)nc2cc(C(=O)N[C@H]3CC[C@H](C(F)(F)F)CC3)c(OCCF)nc21 [Example 870, 2-(2,6-Dichloro-4-fluoro-phenylamino)-5-(2-fluoro-ethoxy)-N-(trans-4-trifluoromethyl-cyclohexyl)-3-methyl-3H-imidazo[4,5-b]pyridine-6-carboxamide]",100
6,"Cn1c(Nc2c(Cl)cc(F)cc2Cl)nc2cc(C(=O)NCc3ccccc3C(F)(F)F)c(OCC(F)F)nc21 [Example 871, 2-(2,6-Dichloro-4-fluoro-phenylamino)-5-(2,2-difluoro-ethoxy)-N-(2-trifluoromethyl-benzyl)-3-methyl-3H-imidazo[4,5-b]pyridine-6-carboxamide]",100
7,"Cn1c(Nc2c(Cl)cc(F)cc2Cl)nc2cc(C(=O)NCC(F)(F)C(F)(F)C(F)(F)C(F)(F)F)c(OCC(F)F)nc21 [Example 872, 2-(2,6-Dichloro-4-fluoro-phenylamino)-5-(2,2-difluoro-ethoxy)-N-(2,2,3,3,4,4,5,5,5-nonafluoropentyl)-3-methyl-3H-imidazo[4,5-b]pyridine-6-carboxamide]",100
8,"Cn1c(Nc2c(Cl)cc(F)cc2Cl)nc2cc(C(=O)NCC(F)(F)C(F)(F)C(F)(F)C(F)(F)F)c(OCC(F)(F)F)nc21 [Example 873, 2-(2,6-Dichloro-4-fluoro-phenylamino)-5-(2,2,2-trifluoro-ethoxy)-N-(2,2,3,3,4,4,5,5,5-nonafluoropentyl)-3-methyl-3H-imidazo[4,5-b]pyridine-6-carboxamide]",100
